Measured values: patent US8012481B2, “Composition and method for inducing or restoring locomotor functions in an animal” (Universite Laval, priority 2004, dated 2011)

Key:
Assay type in all cases: in vivo, mouse
[1] = tested on: paraplegic mice (lumbar spinal cord circuitry for hindlimb locomotion); test: Hindlimb movement generation (LM/NLM) on a motor-driven treadmill in complete spinal cord transected mice; details: for induction of LM: some NLM were found; for mice in which a mixture of LM and NLM was induced: 7 animals/group
paraplegic mice [2] = test: Hindlimb movement generation in paraplegic mice, air-stepping and/or treadmill not separated; BBB and AOB scales; details: for induction of LM / induction of NLM: increasing doses, air-stepping and treadmill conditions, FIG. 13; for effect of 5-HT1A antagonist pretreatment on 8-OH-DPAT-induced LM: antagonist 2 mg/kg
Protocol: Animals and Treatment. We tested one hundred and ninety five (n=195) male and female adult CD1 and C57BL/6 mice weighing 30-40 grams prior to the study (Charles River Laboratory, St-Constant, Canada). […] Animals were spinalized 7 days prior to testing (exceptionally tested sometimes at 15 days post-spinalization, e.g., FIG. 17). A complete transection of the spinal cord was performed intervertebrally between the 9th and 10th vertebrae in isoflurane (2.5%) anesthetized animals. Complete spinalization was confirmed by 1) full paralysis of the hindlimbs, 2) post-mortem examination of the spinal cord microscopically and, in some cases, 3) staining transverse or sagittal spinal cord sections with luxol fast blue/cresyl violet for myelinated axons and nissl substance respectively. All mice received pre-operative care and post-operative care including lactate-Ringer's solution (2 ml/day, s.c.), analgesic (buprenorphine 0.2 mg/kg/day, s.c.) and antibiotic (baytril 5 mg/kg/day, s.c.). Bladders were emptied manually and animals were left in their cage without other interventions with food and water ad libitum until testing. Mice received a single injection (i.p.) of either 8-OHDPAT (5-HT1A/7); 5-CT (5-HT1A/7 agonist); buspirone (5-HT1A agonist); TFMPP (5-HT1B/2C agonist); quipazine (5-HT2B/2C); m-CPP (5-HT2B/2C agonist); SR-57227A (5-HT3) one week post-spinalization. […] The contribution of spinal 5-HT4/5/6 receptor activation to hindlimb movement generation in spinalized animals were not tested either because selective ligands are not available or because no significant expression levels have been found for these receptor subtypes in the mammalian spinal cord (see Schmidt and Jordan, Brain Res Bull 2000).
Hindlimb movement recording. Hindlimb movements were filmed (digital video camera 3 Com Home-connect, 30 frames/sec) immediately prior to injection and at fixed delays after injection in animals either suspended (air-stepping condition) or placed on a treadmill running at a speed of 8-10 cm/sec (treadmill condition). A harness was put around the torso and the waist either to completely suspend animals (air-stepping) or to maintain them in front of the camera on the treadmill (not weight support was provided). Animals were not stimulated otherwise. Locomotor-like movements were defined as rhythmic flexions and extensions occurring in both hindlimbs alternatively. Body weight support and plantar foot placement were facultative and therefore not required to be counted as locomotor-like (LM). In turn, non-locomotor movements (NLM) were defined as non-bilaterally alternating hindlimb movements most often including spasms, kicks, uncoordinated or unilateral movements, etc. In some cases, qualitative assessment methods were used to evaluate the level of induced hindlimb movements. The BBB locomotor scale (Basso, Bresnahan and Beattie, Exp Neurol 1996) and the AOB motor scale (Antri, Orsal and Barthe, Eur J Neurosci 2002) were also occasionally used.

[3] = tested on: paraplegic mice (lumbar spinal cord circuitry for hindlimb locomotion); test: Hindlimb movement generation (LM/NLM) on a motor-driven treadmill in complete spinal cord transected mice
Protocol: (§1) Animals and Treatment Thirty-two (n=32) male or female adult CD1 mice weighing 30-40 grams were tested prior to the study (Charles River Laboratory, St-Constant, Canada). The experiment was conducted in a Canadian Council on Animal Care approved facility in accordance with the CCAC Guide for Care and Use of Experimental Animals. Animals were spinalized 7-9 days prior to testing. A complete transection of the spinal cord was performed intervertebrally between the 9th and 10th vertebrae in isoflurane (2.5%) anesthetized animals. Complete spinalization was confirmed by 1) full paralysis of the hindlimbs, 2) post-mortem examination of the spinal cord microscopically and, in some cases, 3) staining transverse or sagittal spinal cord sections with luxol fast blue/cresyl violet for myelinated axons and nissl substance respectively. All mice received pre-operative care and post-operative care including lactate-Ringer's solution (2 ml/day, s.c.), analgesic (buprenorphine 0.2 mg/kg/day, s.c.) and antibiotic (baytril 5 mg/kg/day, s.c.). Bladders were emptied manually and animals were left in their cage without other interventions with food and water ad libitum until testing.
Hindlimb movement recording. Hindlimb movements were filmed (digital video camera 3 Com Home-connect, 30 frames/sec), 1) immediately prior to injection and, 2) at fixed delays after injection in animals placed on a treadmill running at a speed of 8-10 cm/sec (treadmill condition). A harness was put around the torso and the waist to maintain them in front of the camera on the treadmill (not weight support was provided). Animals were not stimulated otherwise. Hindlimb movements were assessed either as locomotor-like movements (LM) or non-locomotor movements (NLM) Locomotor-like movements were defined as rhythmic flexions and extensions occurring in both hindlimbs alternatively. Body weight support and plantar foot placement were facultative and therefore not required to be counted as locomotor-like (LM). In turn, non-locomotor movements (NLM) were defined as non-bilaterally alternating hindlimb movements most often including spasms, kicks, uncoordinated or unilateral movements, etc. Levels of weight supported movements and of plantar foot placements were assessed as either none, occasional, or frequent.
as §1, with “and Treatment. Twenty-nine (n=29)” for “and Treatment Thirty-two (n=32)”, “male and” for “male or”, “grams” for “grams were tested”, “spinalized 7” for “spinalized 7-9”, “(baytril” for “(baytril 5”
Hindlimb movement recording, Hindlimb movements were filmed (digital video camera 3 Com Home-connect, 30 frames/sec) immediately prior to injection and at fixed delays after injection in animals suspended (air-stepping condition) or placed on a treadmill running at a speed of 8-10 cm/sec (treadmill condition). A harness was put around the torso and the waist either to completely suspend animals (air-stepping) or to maintain them in front of the camera on the treadmill (not weight support was provided).

paraplegic mice [4] = test: Hindlimb movement generation in the air-stepping condition (suspended) in spinal cord transected mice
Description: Animals and Treatment. Twenty-nine (n=29) male and female adult CD1 mice weighing 30-40 grams prior to the study (Charles River Laboratory, St-Constant, Canada). […] Animals were spinalized 7 days prior to testing. […] Bladders were emptied manually and animals were left in their cage without other interventions with food and water ad libitum until testing. […] A harness was put around the torso and the waist either to completely suspend animals (air-stepping) or to maintain them in front of the camera on the treadmill (not weight support was provided). Animals were not stimulated otherwise. Animals and Treatment. […] Bladders were emptied manually and animals were left in their cage without other interventions with food and water ad libitum until testing. Mice received a single injection (i.p.) of either 8-OHDPAT (5-HT1A/7); 5-CT (5-HT1A/7 agonist); buspirone (5-HT1A agonist); TFMPP (5-HT1B/2C agonist); quipazine (5-HT2B/2C); m-CPP (5-HT2B/2C agonist); SR-57227A (5-HT3) one week post-spinalization. […] Hindlimb movement recording. […] A harness was put around the torso and the waist either to completely suspend animals (air-stepping) or to maintain them in front of the camera on the treadmill (not weight support was provided). Animals were not stimulated otherwise. Locomotor-like movements were defined as rhythmic flexions and extensions occurring in both hindlimbs alternatively. Body weight support and plantar foot placement were facultative and therefore not required to be counted as locomotor-like (LM). In turn, non-locomotor movements (NLM) were defined as non-bilaterally alternating hindlimb movements most often including spasms, kicks, uncoordinated or unilateral movements, etc. In some cases, qualitative assessment methods were used to evaluate the level of induced hindlimb movements. The BBB locomotor scale (Basso, Bresnahan and Beattie, Exp Neurol 1996) and the AOB motor […], Orsal and Barthe, Eur J Neurosci 2002) were also occasionally used.

[5] = single injection 0.5-2.5 mg/kg, i.p., CD1 mice 6-7 days post-spinalization, treadmill
[6] = L-DOPA 40-100 mg/kg, treadmill, n=29
[7] = i.p. prior to 8-OH-DPAT, both strains

## CCCN(CCC)C1CCc2ccc(O)cc2C1 (stereo not drawn) [7-OH-DPAT]
[1]; [5]
  induction of LM: did not induce LM

## CCCN(CCC)C1CCc2cccc(O)c2C1 (stereo not drawn) [8-OH-DPAT, 8-hydroxy-2-(di-n-propylamino)tetralin]
[1]; 8-OH-DPAT i.p., spinal mice on a treadmill (FIG. 18), n=28
  doses at which all-or-none-like effects (LM and NLM) start: ≥ 1 mg/kg
Paraplegic mice [2]; 8-OH-DPAT 1 mg/kg, i.p., CD1 and C57BI/6 mice seven days after transection
  induction of hindlimb movements: induced hindlimb alternated movements in most mice
Paraplegic mice [2]; 8-OH-DPAT 1 mg/kg, i.p., seven days after transection
  weight supported steps or plantar foot placements: not found

## NC[C@@H]1O[C@H](c2ccccc2)Cc2c1ccc(O)c2O [A-68930]
[1]; [5]
  mice in which a mixture of LM and NLM was induced: 28%

## N[C@@H](Cc1ccc(O)c(O)c1)C(=O)O [L-DOPA, L-(−)-2-amino-3-(3,4-dihydroxyphenyl)propionic acid]
[3]; L-DOPA 40-100 mg/kg, treadmill, all cases
  weight bearing locomotor capabilities: no weight bearing locomotor capabilities
[3]; [6]
  LM per min (average): 6.1±1.3 per min
  NLM per min (average): 11.2±1.8 per min
[3]; L-DOPA i.p. with benserazide (1:4), CD1 mice 7 days post-spinalization, treadmill 8-10 cm/sec
  uneffective doses on treadmill: < 40 mg/kg
[3]; one mouse (FIG. 6): 40 mg/kg L-DOPA, treadmill
  time following injection at which hindlimb movements began: 20 min
Paraplegic mice [4]; 40 mg/kg L-DOPA, 1-week paraplegic mouse, 20 min post-injection (no effect either 30 or 45 min later)
  hindlimb movement generation in air-stepping: No hindlimb movements
Paraplegic mice [4]; 80 mg/kg L-DOPA, 28 min after injection
  hindlimb movement generation in air-stepping: No movements
Paraplegic mice [4]; 30-100 mg/kg L-DOPA i.p. with benserazide (1:4), CD1 mice 7 days post-spinalization
  hindlimb movement generation in air-stepping: did not induce hindlimb movements

## Cc1cccc(C(=O)NCN2CCN(c3ccccc3C#N)CC2)c1 [PD168077]
[1]; [5]
  induction of LM: did not induce LM

## CC1CCN(CC[C@H]2CCCN2S(=O)(=O)c2cccc(O)c2)CC1 [SB269970]
Paraplegic mice [2]; SB269970 2-15 mg/kg, i.p. prior to 8-OH-DPAT, both strains
  effect of 5-HT7 antagonist pretreatment on 8-OH-DPAT-induced movement frequencies, amplitudes and angular excursions: importantly reduced

## Oc1cc2c(c(Cl)c1O)CCNCC2c1ccccc1 (stereo not drawn) [SKF-81297]
[1]; [5]
  ACOS (averaged combined score = NLM+[LM×2]): > 8
  mice in which a mixture of LM and NLM was induced: 71%

## Cl.NC1CCN(c2cccc(Cl)n2)CC1 [SR-57227A]
Paraplegic mice [2]; SR-57227A i.p., air-stepping, open-field or treadmill
  type of hindlimb movements induced: can induce only NLM
Paraplegic mice [2]; SR-57227A, FIG. 16
  scores with the BBB and Antri motor scales: very low scores
Paraplegic mice [2]; SR-57227A, FIG. 16A
  score on Basso, Beattie and Bresnahan (1996) locomotor scale: Non-significant scores
[3]; SR-57227A, treadmill, in some animals
  locomotor-like movements per min on a treadmill: approx. 2.5 per min

## FC(F)(F)c1cccc(N2CCNCC2)c1 [TFMPP]
Paraplegic mice [2]; i.p.
  induction of LM: not to induce LM
  induction of NLM: induced only NLM

## COc1ccccc1N1CCN(CC(C(=O)NC(C)(C)C)c2ccccc2)CC1 (stereo not drawn) [WAY100,135]
Paraplegic mice [2]; [7]
  effect of 5-HT1A antagonist pretreatment on 8-OH-DPAT-induced LM: significantly reduced

## COc1ccccc1N1CCN(CCN(C(=O)C2CCCCC2)c2ccccn2)CC1 [WAY100,635]
Paraplegic mice [2]; [7]
  effect of 5-HT1A antagonist pretreatment on 8-OH-DPAT-induced LM: significantly reduced

## CN1CCc2cccc3c2[C@H]1Cc1ccc(O)c(O)c1-3 [apomorphine, (R)-5,6,6a,7-tetrahydro-6-methyl-4H-dibenzo-[de,g]quinoline-10,11-diol]
[1]; [5]
  mice in which a mixture of LM and NLM was induced: 11%

## Clc1cccc(N2CCNCC2)c1 [m-CPP]
Paraplegic mice [2]; i.p.
  induction of LM: not to induce LM
  induction of NLM: dose-dependent non-locomotor movements were found

## c1ccc2nc(N3CCNCC3)ccc2c1 [quipazine]
Paraplegic mice [2]; quipazine, FIG. 9 vs. FIG. 15
  times less LM than 8-OH-DPAT tested in similar conditions: 2-3 times
Paraplegic mice [2]; quipazine, air-stepping or treadmill 8-10 cm/sec
  weight-supported stepping and plantar foot placement: No weight-supported stepping and plantar foot placement were found
Paraplegic mice [2]; quipazine, treadmill as well as air-stepping, FIG. 15
  number of movements of each type (LM, NLM): 8-15
Paraplegic mice [4]; quipazine i.p., air-stepping condition, FIG. 14
  doses inducing some rhythmic LM in air-stepping: above 0.8 mg/kg
Paraplegic mice [4]; quipazine i.p., air-stepping, FIG. 14H
  ineffective doses: below 0.8 mg/kg
